In ChEMBL document CHEMBL1201862, “PubChem BioAssay data set” (2004):
One block for each compound: values may come before it. The source made the active and inactive calls.

Tests used:
[1] = biological target: Beta-2 adrenergic receptor (Homo sapiens, UniProt P07550); assay: beta2AR agonists driving receptor internalization, dose response, cell-based, FAP fluorogen, flow cytometry, cherry pick 1 (AID 588763); format: functional
[2] = biological target: T1, Carboxy-terminal domain RNA polymerase II polypeptide A small phosphatase 1 (Homo sapiens, UniProt Q9GZU7); assay: inhibitors of CTDSP1, concentration-response testing, biochemical assay, absorbance-based, actives from ultra-high-throughput screening (AID 540297); format: functional
T1 sequence (Q9GZU7 whole entry): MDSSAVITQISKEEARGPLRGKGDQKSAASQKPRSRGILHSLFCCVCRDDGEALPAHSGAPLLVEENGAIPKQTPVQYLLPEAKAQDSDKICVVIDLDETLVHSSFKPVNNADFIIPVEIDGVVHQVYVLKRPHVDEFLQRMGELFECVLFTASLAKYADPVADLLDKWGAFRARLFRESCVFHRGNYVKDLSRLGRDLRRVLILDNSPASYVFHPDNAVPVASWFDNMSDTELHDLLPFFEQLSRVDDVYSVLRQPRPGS

[3] = biological target: T2, Cytochrome P450 1A2 (Homo sapiens, UniProt P05177);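 further: PubChem cytochrome P450 panel assay, CYP1A2 panel member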
T2 sequence (P05177 whole entry): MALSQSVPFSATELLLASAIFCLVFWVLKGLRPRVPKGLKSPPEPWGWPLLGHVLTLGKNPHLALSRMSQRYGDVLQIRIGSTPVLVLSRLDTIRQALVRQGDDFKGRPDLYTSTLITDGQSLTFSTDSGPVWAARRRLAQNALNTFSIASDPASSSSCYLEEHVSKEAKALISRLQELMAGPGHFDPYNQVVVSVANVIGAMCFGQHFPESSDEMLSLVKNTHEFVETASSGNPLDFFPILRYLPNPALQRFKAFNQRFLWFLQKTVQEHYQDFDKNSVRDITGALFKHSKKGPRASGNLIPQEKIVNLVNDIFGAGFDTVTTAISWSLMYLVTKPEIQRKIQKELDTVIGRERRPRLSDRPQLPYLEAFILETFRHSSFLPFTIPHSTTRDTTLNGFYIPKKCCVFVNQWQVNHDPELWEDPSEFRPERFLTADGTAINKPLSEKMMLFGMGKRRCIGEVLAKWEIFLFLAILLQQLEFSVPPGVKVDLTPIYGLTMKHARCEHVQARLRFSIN

[4] = biological target: T3, Caspase-3 (Homo sapiens, UniProt P42574); assay: SAR Analysis of small molecule inhibitors of Sentrin-specific proteases (SENPs) using a Caspase-3 Selectivity assay. [Related pubchem assays (depositor defined):AID2540, AID2599, AID434973, AID489001]; format: functional
T3 sequence (P42574 whole entry): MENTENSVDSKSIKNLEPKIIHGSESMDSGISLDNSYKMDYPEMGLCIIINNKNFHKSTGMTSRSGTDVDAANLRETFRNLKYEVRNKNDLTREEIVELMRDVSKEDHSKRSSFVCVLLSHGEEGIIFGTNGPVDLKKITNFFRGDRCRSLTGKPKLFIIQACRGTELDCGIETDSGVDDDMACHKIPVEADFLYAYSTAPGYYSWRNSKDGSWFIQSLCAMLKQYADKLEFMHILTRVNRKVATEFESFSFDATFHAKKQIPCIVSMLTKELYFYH

[5] = biological target: T4, Sentrin-specific protease 7 (Homo sapiens, UniProt Q9BQF6); assay: SENP7 protease inhibitors, SAR follow-up, biochemical, luminescence (AID 504497); format: functional
T4 sequence (Q9BQF6 whole entry): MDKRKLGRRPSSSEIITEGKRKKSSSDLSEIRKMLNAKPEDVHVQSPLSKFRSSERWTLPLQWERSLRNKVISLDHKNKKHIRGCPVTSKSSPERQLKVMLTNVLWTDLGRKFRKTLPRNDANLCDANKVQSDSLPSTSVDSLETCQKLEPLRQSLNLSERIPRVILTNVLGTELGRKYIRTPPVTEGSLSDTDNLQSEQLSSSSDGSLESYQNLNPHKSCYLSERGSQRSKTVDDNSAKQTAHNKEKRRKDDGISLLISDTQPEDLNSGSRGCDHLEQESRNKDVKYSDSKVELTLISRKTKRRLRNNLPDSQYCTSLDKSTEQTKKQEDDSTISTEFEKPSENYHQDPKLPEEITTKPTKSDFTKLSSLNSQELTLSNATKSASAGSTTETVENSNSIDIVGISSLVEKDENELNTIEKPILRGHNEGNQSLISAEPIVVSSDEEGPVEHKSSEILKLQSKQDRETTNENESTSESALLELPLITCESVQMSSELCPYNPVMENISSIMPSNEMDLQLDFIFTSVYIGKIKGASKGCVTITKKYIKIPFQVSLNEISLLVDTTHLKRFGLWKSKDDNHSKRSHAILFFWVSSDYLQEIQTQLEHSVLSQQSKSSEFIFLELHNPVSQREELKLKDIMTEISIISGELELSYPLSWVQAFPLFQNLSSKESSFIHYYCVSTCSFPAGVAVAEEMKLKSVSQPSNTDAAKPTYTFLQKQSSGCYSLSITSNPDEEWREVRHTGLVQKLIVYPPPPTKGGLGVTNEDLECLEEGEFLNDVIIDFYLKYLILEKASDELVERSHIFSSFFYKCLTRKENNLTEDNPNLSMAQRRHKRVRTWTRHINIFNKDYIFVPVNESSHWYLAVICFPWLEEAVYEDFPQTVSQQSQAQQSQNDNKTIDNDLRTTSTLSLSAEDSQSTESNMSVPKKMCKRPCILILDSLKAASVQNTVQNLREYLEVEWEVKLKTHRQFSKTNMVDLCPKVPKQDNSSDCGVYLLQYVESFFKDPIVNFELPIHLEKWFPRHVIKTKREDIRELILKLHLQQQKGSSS

[6] = biological target: T5, Sentrin-specific protease 8 (Homo sapiens, UniProt Q96LD8); assay: SENP8 protease inhibitors, SAR follow-up, biochemical, luminescence (AID 504501); format: functional
T5 sequence (Q96LD8 whole entry): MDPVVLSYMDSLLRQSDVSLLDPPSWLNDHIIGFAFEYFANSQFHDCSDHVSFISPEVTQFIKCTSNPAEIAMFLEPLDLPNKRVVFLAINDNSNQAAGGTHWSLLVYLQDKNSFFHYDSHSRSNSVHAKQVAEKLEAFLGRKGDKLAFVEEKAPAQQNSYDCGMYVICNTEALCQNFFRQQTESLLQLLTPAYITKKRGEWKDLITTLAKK

[7] = biological target: T6, Sentrin-specific protease 6 (Homo sapiens, UniProt Q9GZR1); assay: SAR Analysis of small molecule inhibitors of Sentrin-specific protease 6 (SENP6) using a Luminescent assay. [Related pubchem assays (depositor defined):AID2582, AID2599]; format: functional
T6 sequence (Q9GZR1 whole entry): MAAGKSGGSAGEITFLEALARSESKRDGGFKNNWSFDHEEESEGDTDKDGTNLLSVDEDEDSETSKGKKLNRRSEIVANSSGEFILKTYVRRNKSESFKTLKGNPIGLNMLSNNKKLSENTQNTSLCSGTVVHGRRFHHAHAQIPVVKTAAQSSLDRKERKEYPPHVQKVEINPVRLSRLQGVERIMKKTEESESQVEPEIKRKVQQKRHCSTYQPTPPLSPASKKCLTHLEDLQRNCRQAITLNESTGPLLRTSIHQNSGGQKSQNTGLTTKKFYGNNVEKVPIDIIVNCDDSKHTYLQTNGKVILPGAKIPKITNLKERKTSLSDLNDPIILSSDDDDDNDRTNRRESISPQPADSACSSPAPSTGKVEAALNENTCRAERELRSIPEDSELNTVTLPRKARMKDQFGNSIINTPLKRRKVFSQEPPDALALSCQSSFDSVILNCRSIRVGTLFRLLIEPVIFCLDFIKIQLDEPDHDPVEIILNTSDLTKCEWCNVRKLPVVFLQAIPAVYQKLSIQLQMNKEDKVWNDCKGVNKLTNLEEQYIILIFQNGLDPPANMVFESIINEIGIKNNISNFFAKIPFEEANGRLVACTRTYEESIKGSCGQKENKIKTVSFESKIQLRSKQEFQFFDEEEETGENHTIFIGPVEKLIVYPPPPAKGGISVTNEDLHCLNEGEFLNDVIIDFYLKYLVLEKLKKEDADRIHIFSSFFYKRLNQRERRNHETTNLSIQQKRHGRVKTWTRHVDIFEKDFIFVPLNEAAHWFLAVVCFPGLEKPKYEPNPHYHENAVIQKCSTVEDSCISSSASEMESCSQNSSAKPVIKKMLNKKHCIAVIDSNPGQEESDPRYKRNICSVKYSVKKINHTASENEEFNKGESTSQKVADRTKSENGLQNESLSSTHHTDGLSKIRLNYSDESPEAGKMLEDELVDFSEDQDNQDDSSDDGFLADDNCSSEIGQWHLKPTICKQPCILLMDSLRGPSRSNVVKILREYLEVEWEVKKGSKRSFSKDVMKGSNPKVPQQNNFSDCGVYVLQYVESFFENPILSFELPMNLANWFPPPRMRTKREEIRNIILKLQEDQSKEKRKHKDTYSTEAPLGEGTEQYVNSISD

[8] = test system: Vero; assay: Vero cell cytotoxicity, cytotoxicity control for flavivirus capping enzyme inhibitors (AID 588742); format: functional; details: Chlorocebus sabaeus
[9] = biological target: T7, Corticotropin-releasing factor receptor 2/Corticotropin-releasing factor-binding protein (Homo sapiens, UniProt P24387+Q13324); assay: activators of CRF receptor 2 with binding protein – uHTS hits, confirmation (AID 602473); format: functional; details: read-out: EC50_Mean
T7 sequence (Q13324 whole entry): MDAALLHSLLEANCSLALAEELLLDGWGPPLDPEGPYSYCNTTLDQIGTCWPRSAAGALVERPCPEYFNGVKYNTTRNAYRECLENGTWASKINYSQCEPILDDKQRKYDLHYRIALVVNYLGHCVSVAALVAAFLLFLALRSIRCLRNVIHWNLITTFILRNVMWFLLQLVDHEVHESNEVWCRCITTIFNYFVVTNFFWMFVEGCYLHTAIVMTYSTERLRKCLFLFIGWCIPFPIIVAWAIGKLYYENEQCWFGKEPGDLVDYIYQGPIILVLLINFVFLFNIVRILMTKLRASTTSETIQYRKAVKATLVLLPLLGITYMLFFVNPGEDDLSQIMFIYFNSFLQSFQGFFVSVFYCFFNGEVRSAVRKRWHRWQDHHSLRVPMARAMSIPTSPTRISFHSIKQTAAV
T7 sequence (P24387 whole entry): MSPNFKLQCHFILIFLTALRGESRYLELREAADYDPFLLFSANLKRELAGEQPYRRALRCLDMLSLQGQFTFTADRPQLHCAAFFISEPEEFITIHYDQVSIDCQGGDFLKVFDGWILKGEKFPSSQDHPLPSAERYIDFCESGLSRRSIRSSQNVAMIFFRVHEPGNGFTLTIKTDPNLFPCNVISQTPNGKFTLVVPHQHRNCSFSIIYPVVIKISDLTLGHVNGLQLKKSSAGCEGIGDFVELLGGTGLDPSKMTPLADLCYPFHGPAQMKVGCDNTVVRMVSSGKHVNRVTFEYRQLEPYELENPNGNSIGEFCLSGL

[10] = biological target: T8, High affinity choline transporter 1 (Homo sapiens, UniProt Q9GZV3); assay: CHT inhibitors, dose response, cell-based, 5-point CRC, membrane potential dye (AID 504840); format: functional
T8 sequence (Q9GZV3 whole entry): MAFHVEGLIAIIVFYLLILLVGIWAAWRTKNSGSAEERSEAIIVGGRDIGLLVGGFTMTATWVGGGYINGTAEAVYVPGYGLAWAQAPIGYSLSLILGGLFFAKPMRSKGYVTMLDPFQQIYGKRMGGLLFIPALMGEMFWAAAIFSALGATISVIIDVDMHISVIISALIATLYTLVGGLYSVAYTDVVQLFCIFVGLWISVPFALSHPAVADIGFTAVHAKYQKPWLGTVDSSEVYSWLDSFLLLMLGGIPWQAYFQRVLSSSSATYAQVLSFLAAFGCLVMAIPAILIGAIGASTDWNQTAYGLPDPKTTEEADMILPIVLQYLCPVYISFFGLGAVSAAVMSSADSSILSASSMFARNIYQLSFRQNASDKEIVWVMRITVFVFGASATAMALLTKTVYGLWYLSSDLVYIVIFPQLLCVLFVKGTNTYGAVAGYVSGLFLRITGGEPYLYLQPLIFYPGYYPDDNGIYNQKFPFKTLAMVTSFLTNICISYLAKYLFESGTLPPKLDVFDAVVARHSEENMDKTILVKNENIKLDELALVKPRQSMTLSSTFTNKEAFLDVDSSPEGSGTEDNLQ

[11] = biological target: Genome polyprotein (dengue virus type 2, UniProt P29990); assay: Dengue-2 NS5 methyltransferase inhibitors, primary screen, biochemical, confirmation dose response (AID 588689); format: functional
[12] = test system: Streptococcus; assay: Group A Streptococcus viability loss, dose response, counter-screen for streptokinase expression inhibitor project, luminescence, BacTiterGlo (AID 1915); format: functional, organism-based;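 further: potency for reduction of bacterial viability or growth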
[13] = test system: Streptococcus sp. 'group A'; assay: growth inhibition of control SK(-) GAS strain, dose response, counter-screen for streptokinase expression inhibitor project, luminescence, kanamycin, BacTiterGlo, confirmation (AID 1900); format: functional, organism-based

Beta-2 adrenergic receptor, sequence (P07550 whole entry, the tested form may be a part): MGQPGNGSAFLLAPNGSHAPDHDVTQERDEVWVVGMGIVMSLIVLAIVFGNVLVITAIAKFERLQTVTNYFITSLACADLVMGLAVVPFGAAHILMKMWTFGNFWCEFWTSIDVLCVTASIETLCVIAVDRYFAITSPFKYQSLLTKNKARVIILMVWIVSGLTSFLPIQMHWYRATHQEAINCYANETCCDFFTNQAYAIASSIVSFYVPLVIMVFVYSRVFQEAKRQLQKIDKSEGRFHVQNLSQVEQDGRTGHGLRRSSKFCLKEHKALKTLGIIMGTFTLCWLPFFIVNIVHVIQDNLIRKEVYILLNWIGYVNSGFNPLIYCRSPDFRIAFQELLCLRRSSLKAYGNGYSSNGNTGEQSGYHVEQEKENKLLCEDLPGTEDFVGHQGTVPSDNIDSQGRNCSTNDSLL
Genome polyprotein, sequence (P29990 2492-3391 limits assumed): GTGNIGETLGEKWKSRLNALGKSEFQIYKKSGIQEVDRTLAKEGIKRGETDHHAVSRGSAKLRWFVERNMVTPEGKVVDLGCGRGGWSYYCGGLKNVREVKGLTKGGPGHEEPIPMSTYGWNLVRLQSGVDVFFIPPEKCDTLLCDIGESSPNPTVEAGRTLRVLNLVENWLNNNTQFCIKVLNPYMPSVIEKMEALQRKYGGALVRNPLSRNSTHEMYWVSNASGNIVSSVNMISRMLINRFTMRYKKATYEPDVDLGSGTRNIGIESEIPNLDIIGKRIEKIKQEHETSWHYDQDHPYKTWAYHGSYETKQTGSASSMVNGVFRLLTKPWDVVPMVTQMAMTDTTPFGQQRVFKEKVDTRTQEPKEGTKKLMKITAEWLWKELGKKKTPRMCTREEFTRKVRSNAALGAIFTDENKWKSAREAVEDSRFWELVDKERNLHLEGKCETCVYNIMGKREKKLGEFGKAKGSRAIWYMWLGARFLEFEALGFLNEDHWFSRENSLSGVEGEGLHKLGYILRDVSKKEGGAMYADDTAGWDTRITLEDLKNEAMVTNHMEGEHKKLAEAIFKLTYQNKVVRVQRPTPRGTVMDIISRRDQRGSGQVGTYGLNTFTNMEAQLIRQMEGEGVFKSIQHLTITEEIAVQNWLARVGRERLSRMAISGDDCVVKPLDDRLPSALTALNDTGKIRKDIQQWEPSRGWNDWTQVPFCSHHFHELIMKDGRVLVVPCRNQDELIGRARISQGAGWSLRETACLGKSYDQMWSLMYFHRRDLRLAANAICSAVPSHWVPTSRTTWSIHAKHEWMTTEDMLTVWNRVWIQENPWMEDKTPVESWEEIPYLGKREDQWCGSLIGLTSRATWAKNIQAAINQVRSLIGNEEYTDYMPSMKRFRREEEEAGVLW

Compound: CC(C)=CCC(C)(C)C1OCCN1C(=O)c1ccccc1 (stereo unspecified)
EC50 [1]: 3.3 µM (active)

Compound: O=C(c1ccc(OC2CCN(Cc3ccc(C(F)(F)F)cc3)CC2)cc1)N1CCCCC1
EC50 [1]: 2.59 µM (active)

Compound: C(=N/Nc1cc(N2CCCCCC2)nc(N2CCCCCC2)n1)/c1ccccc1
IC50 [4]: > 99 µM (inactive)
IC50 [5]: > 99 µM (inactive)
IC50 [6]: > 99 µM (inactive)
IC50 [7]: 64.6 µM (active)

Compound: O=C(Nc1cc(S(=O)(=O)N2CCCCC2)ccc1O)c1ccccc1NS(=O)(=O)c1ccc(F)cc1
CC50 [8]: > 40 µM (active)
EC50 [9]: 1.83 µM (active)
IC50 [10]: 13.2 µM (active)
IC50 [11]: 67.9 µM (active)

Compound: O=C(O)CN1C(=O)/C(=C\c2cc(Br)ccc2OCc2ccc(Cl)cc2Cl)SC1=S
CC50 [8]: > 40 µM (active)
EC50 [12]: 1.95 µM (active)
EC50 [13]: 1.36 µM (active)
IC50 [11]: 28.8 µM (active)

Second part, led by results:

EC50 [1]: 7.22 µM (inactive)
IC50 [2]: 7.21 µM (active)
AC50 [3]: 25.1 µM (inconclusive)
Compound: O=C(Nc1cccc(-c2nc3ncccc3o2)c1)c1sc2cc(Cl)ccc2c1Cl

IC50 [4]: > 99 µM (inactive)
IC50 [5]: > 99 µM (inactive)
IC50 [7]: > 99 µM (inactive)
Compound: CN(C)S(=O)(=O)c1ccc2nc(NC(=O)c3sc4ccccc4c3Cl)sc2c1
IC50 [6]: > 99 µM (inactive)
